Counter-ions that a name gives are not always drawn.

The record followed here is patent US10329242B2, “Process for purifying long chain amino acids” (VITAWORKS IP, LLC, priority 2017, dated 2019).

The nature of data set [1]: Solubility of bisulfate salts in 1 M solution of sulfuric acid. It is filed as physicochemical. The note with it: for solubility: temperature below 40° C.; for solubility change with temperature: temperature increased from 60° C. to 80° C. and above.
Data set [2] in a line: Solubility in water and aqueous solution of acetic acid. It is filed as physicochemical. The note with it: aqueous solution of 10% (wt/wt) acetic acid at 80° C.

Regarding `NCCCCCCCCCCC(=O)O` [11-aminoundecanoic acid], the solubility entry in data set [1] is “negligible solubility”; in data set [2], “up to 45 % (wt/wt)”. Besides, the “solubility change with temperature” value in data set [1] was “drastically increased”.

For `NCCCCCCCCCCCC(=O)O` [bisulfate salt of 12-aminolauric acid, 12-aminolauric acid], in data set [1], the solubility result is recorded as “negligible solubility” and the “solubility change with temperature” value is recorded as “drastically increased”.
